Measured values: patent US20260335295A1, “PHARMACEUTICAL COMPOSITION COMPRISING HTRA ACTIVATOR AS ACTIVE INGREDIENT FOR PREVENTING OR TREATING DEGENERATIVE DISEASES, AND METHOD FOR SCREENING HTRA ACTIVITY MODULATOR” (THE ASAN FOUNDATION, priority 2023, published 2026)

Assays:
[1] = target: T1, HTRA1 (Homo sapiens, UniProt Q92743); assay: HTRA1 activity in HeLa cells with HTRA1 activity-based probe DS-1-94, fluorescence microscopy; type: cell-based; details: E09 10 μM, DS-1-94 5 μM, 37 °C, 1 hour, FIG. 4
Experimental: To confirm whether HTRA1 activity increases even when cells are treated with E09, HTRA1 activity according to the presence or absence of E09 was identified by treating Hela cells, which are human adenocarcinoma cells, with an HTRA1 activity-based probe (DS-1-94, final concentration of 5 μM) and E09 (HTRA activator, final concentration of 10 μM).
Specifically, the cells treated with the HIRAI activity-based probe (DS-1-94) and E09 (HTRA activator) were maintained in a 37 °C incubator for 1 hour.

[2] = target: T1, HTRA1; assay: HTRA1 enzyme activity on addition of casein, PDZ-opt (GQYYFV) or E09; type: biochemical; details: 10 μM E09 vs 2 μg β-casein or PDZ-opt; 15 minutes at room temperature, measured at 37 °C 3 hours; FIG. 5
Experimental: HTRA activity was measured utilizing E09 and the HTRA activity-based probes synthesized by the method of Example 4.1. Changes in HTRA activity w ere measured for cases in which casein, known as a substrate of an HTRA enzyme, or PDZ-opt (GQYYFV), known as a peptide that activates an HTRA enzyme, was added and a case in which E09 was added.
Specifically, 2 μg of β-casein or PDZ-opt (GQYYFV) or 10 μM of E09 was added to an HTRA1 enzyme by the method of Example 1, the mixture was allowed to stand at room temperature for 15 minutes, and then HTRA1 activity was measured at 37 °C for 3 hours in the same manner as in Example 1, and the results are shown in FIG. 5.

[3] = target: T2, HTRA2 (Homo sapiens, UniProt O43464); assay: HTRA2 activity assay with fluorogenic substrate H2-Opt; type: biochemical
T2 sequence (O43464 134-458): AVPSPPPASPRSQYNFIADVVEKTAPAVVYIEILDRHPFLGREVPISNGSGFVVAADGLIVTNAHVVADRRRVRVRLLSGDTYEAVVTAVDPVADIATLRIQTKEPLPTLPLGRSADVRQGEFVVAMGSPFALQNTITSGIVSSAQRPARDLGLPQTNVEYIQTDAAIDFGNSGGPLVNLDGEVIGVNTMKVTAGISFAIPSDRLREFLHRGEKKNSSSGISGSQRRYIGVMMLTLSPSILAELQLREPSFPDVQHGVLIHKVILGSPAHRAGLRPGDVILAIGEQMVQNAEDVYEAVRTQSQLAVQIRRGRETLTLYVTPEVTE
Experimental: (§1) HTRA activity was identified through high-throughput screening using H2-Opt, a commercially available fluorogenic substrate.
(§2) Specifically, purified recombinant HTRA1 protein (50 ng) and a compound (final concentration of 10 μM) were added to 80 μL of an assay buffer in each well of a 96-well plate and were allowed to stand at room temperature for 30 minutes. Immediately after 20 μL of an H2-OPT solution (final concentration of 6.25 μM) was added thereto and mixed, fluorescence signals generated therefrom were measured using an MS microplate reader device manufactured by Molecular Devices. Upon measurement of the fluorescence signals in kinetic mode, excitation and emission were set to 328 nm and 393 nm, respectively, and changes in the fluorescence signals were measured at 37 °C for 3 hours at intervals of 30 seconds.
(§3) Specifically, different concentrations of E09 (0.01, 0.1, 1, 10, and 100 (M) w ere added to purified recombinant HTRA1 and HTRA2, and activities of HTRA1 and HTRA2 were measured in the same manner as the high-throughput screening of Example 1. Fluorescence signals at the end of measurement (3 hours) were measured for each concentration. Graphs obtained by measuring the fluorescence signals of HTRA1 and HTRA2 are shown in FIGS. 2 and 3.

[4] = test system: ARPE-19 retinal pigment epithelial cells; assay: Holotomography analysis in three-dimensional long-term culture macular degeneration cell model; type: cell-based; details: ARPE-19, 4.5 months culture; FIGS. 9J-L
Text: (§4) In order to verify the preventive or therapeutic effect of compound E09 on age-related macular degeneration (AMD) under conditions similar to an in vivo environment, a macular degeneration cell model using a three-dimensional (3D) long-term culture system was established.
(§5) The model was designed to induce apical-basal polarization of ARPE-19 cells and to reproduce the structural and functional differentiation characteristics of retinal pigment epithelium (RPE), as well as pathological drusen accumulation patterns, through nicotinamide-based long-term culture.
(§6) Specifically, ARPE-19 retinal pigment epithelial cells were seeded at a density of 1.66× 10^5 cells/cm^2 and cultured for two weeks in a medium containing nicotinamide. Thereafter, the cells were re-seeded onto laminin-coated Transwell inserts.
(§7) Subsequently, the medium was replaced every 2-3 days with a medium containing E09 or an HtrA1 inhibitor, and the cells were differentiated for 4.5 months (untreated control group (ctrl), E09-treated group, and HtrA1 inhibitor-treated group).

[5] = target: T1, HTRA1; assay: HTRA1 activation in human blood samples; details: no method given
[6] = test system: gene sets (transcriptome); assay: Transcriptome analysis (GSEA) in a pathological model of macular degeneration (AMD); details: vs control group, FIG. 12 upper left
Experimental: The collected transcriptome data were analyzed at the gene set level using Gene Set Enrichment Analysis (GSEA).
FIG. 12 is a graph showing the results of GSEA (Gene Set Enrichment Analysis) performed after transcriptome analysis following treatment with Compound E09 or an HTRA1 inhibitor in a pathological model of macular degeneration (AMD).

[7] = test system: ARPE-19 retinal pigment epithelial cells; assay: Cobblestone structure by clusterin and ZO-1 staining in NaIO3-induced dry macular degeneration cell model; type: cell-based; details: pretreated 24 hours, co-treated with NaIO3 12 hours
Experimental: (§8) In order to confirm the preventive or therapeutic effect of compound E09 on age-related macular degeneration (AMD), a dry age-related macular degeneration (AMD)-like cell model induced by treatment with NaIO3 was established.
as §6
(§9) After culture for one month in a medium containing nicotinamide, the cells were treated with NaIO3 for 12 hours to induce cell injury (NaIO3-alone treatment group), wherein NaIO3 is commonly used for inducing dry age-related macular degeneration (AMD). Structural changes in the cells were then evaluated by analyzing clusterin and ZO-1. E09 and the HtrA1 inhibitor were dissolved in dimethyl sulfoxide (DMSO) and used for the experiments.
(§10) In order to evaluate the effect of E09 on NaIO3-induced cell injury, E09 was pretreated 24 hours prior to NaIO3 treatment and subsequently co-treated with NaIO3 for 12 hours (E09-treated group).
In addition, under the same conditions, NaIO3 and an HtrA1 inhibitor were administered, and a TUNEL assay was performed to evaluate cytotoxicity.

[8] = test system: ARPE-19 retinal pigment epithelial cells; assay: Microvilli formation in three-dimensional long-term culture macular degeneration cell model; type: cell-based; details: ARPE-19, 4.5 months culture; FIGS. 9G-I
Text: as §4, §5, §6, §7

[9] = target: T1, HTRA1; assay: HTRA1 activity assay with fluorogenic substrate H2-Opt (high-throughput screening); type: biochemical
Experimental: as §1, §2, §3

[10] = test system: ARPE-19 retinal pigment epithelial cells; assay: Cell death by TUNEL assay in NaIO3-induced dry macular degeneration cell model; type: cell-based; details: pretreated 24 hours, co-treated with NaIO3 12 hours, FIG. 7E-H
Experimental: as §8, §6, §9, §10
In addition, under the same conditions, NaIO3 and an HtrA1 inhibitor were administered, and a TUNEL assay was performed to evaluate cytotoxicity. […]

[11] = test system: NaIO3-induced mouse macular degeneration model (retina); assay: NaIO3-induced mouse macular degeneration model, H&E staining and thickness of retina; type: in vivo, C57BL/GJ mice; details: intravitreal injection on Day −1, NaIO3 IV day 0, eyes five days after NaIO3
Experimental: Specifically, C57BL/GJ mice (6 weeks old) were acclimated for one week, and on experimental day 0, NaIO3 was administered via intravenous injection (IV) to induce retinal injury. To evaluate drug efficacy, E09 or an HtrA1 inhibitor was pre-administered by intravitreal injection one day prior to NaIO3 administration (Day −1).
Five days after administration of NaIO3, the eyes were enucleated, and the tissues. were fixed and sectioned. Hematoxylin & Eosin (H&E) staining was then performed to observe morphological changes in the retina.
In particular, the structural preservation status and thickness changes of the retinal pigment epithelium (RPE) layer, photoreceptor outer segments (POS), and the outer nuclear layer (ONL) were primarily analyzed.

[12] = test system: ARPE-19 retinal pigment epithelial cells; assay: Cell barrier structure by ZO-1 and clusterin staining in three-dimensional long-term culture macular degeneration cell model; type: cell-based; details: ARPE-19, 4.5 months culture; FIGS. 9D-F
Text: as §4, §5, §6, §7

[13] = test system: ARPE-19 retinal pigment epithelial cells; assay: Immunostaining of ApoE and Cathepsin D in three-dimensional long-term culture macular degeneration cell model; type: cell-based; details: ARPE-19, 4.5 months culture; vs control group; FIGS. 9A-C
Text: as §4, §5, §6, §7

T1 sequence (Q92743 23-480): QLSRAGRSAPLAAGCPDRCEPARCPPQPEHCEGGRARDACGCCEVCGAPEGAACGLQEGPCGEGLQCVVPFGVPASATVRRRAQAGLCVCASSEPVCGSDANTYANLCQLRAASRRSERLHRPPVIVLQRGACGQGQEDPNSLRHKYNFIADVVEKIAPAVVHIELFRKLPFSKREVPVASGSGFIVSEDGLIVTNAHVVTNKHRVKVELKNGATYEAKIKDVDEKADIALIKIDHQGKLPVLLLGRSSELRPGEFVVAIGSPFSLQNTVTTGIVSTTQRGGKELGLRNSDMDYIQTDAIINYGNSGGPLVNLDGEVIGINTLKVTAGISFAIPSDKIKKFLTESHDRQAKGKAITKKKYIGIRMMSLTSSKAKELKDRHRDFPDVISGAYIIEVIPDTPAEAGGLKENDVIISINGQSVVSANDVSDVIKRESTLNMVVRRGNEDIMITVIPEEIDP

COC(=O)C1CCC(NC(=O)c2ccc(-c3nc(C)cs3)cc2)(C(=O)OC)CC1 (centres unmarked) [Compound E09, dimethyl 1-(4-(4-methylthiazol-2-yl)benzamido)cyclohexane-1,4-dicarboxylate]
fluorescence signal of HTRA1 probe (HTRA1 activity) [1]: fluorescence signal markedly increased
HTRA1 activation compared with casein or PDZ-opt (GQYYFV) [2]: activates the HTRA1 enzyme at room temperature far more significantly than casein or PDZ-opt (GQYYFV)
dose dependency of HTRA2 activity ([3]; 0.01, 0.1, 1, 10, and 100 (M) as printed, signal at 3 hours, FIG. 3): activates HTRA1 and HTRA2 in a dose-dependent manner
activation ability in HTRA2 (both HTRA1 and HTRA2) ([3]; Example 1, in words): excellent activation ability in both HTRA1 and HTRA2
cytoskeletal structure (holotomography) [4]: a stable cytoskeletal structure was maintained
HTRA1 activation in human blood samples [5]: also activates HTRA1 in human blood samples
expression of gene sets associated with retinal vascular lesions (retinal telangiectasia and vascular tortuosity) [6]: overall tendency toward decreased expression
structural damage induced by NaIO3 / cobblestone structure ([7]; FIG. 7A-D): structural damage induced by NaIO3 was significantly suppressed
monolayer structure of the cells ([7]; FIG. 7C): the monolayer structure of the cells was preserved
microvilli formation [8]: increased microvilli development
dose dependency of HTRA1 activity ([9]; 0.01, 0.1, 1, 10, and 100 (M) as printed, signal at 3 hours, FIG. 2): activates HTRA1 and HTRA2 in a dose-dependent manner
activation ability in HTRA1 (both HTRA1 and HTRA2) ([9]; Example 1, in words): excellent activation ability in both HTRA1 and HTRA2
HTRA1 activation ([9]; screening, final concentration of 10 μM, H2-OPT 6.25 μM, 37 °C, 3 hours, FIG. 1): significantly activate HTRA1
NaIO3-induced cell death (TUNEL assay) [10]: NaIO3-induced cell death was significantly suppressed
tissue continuity (H&E) ([11]; FIG. 11A): tissue continuity was well maintained
ONL thickness ([11]; FIG. 11B): significantly suppressed NaIO3-induced thinning and protected retinal structure
separation of the retinal (RPE-POS) layers (H&E) ([11]; vs DMSO control, FIG. 11A): separation of the retinal layers was markedly suppressed
ZO-1 and clusterin staining pattern (epithelial barrier) [12]: maintained a continuous and regular staining pattern along the cell boundaries, indicating formation of a robust epithelial barrier structure
expression / accumulation of ApoE (drusen marker) [13]: expression levels of these markers tended to decrease compared with the control group
expression / accumulation of cathepsin D (drusen marker) [13]: expression levels of these markers tended to decrease compared with the control group
